Test results as given in ChEMBL document CHEMBL4706505, “F10, a new camptothecin derivative, was identified as a new orally-bioavailable, potent antitumor agent” (Eur J Med Chem, 2020).
≈ marks a conversion by molar mass, not a printed value.

Tests used:
HCT-116 [1] = experiment: Antitumor activity against human HCT-116 cells xenografted in nude BALB/c mouse assessed as tumor growth inhibition at 8 mg/kg, po dosed once the other day for 12 times upto 24 days; type: functional; parameters: scale not given: the % may be the effect or the level left; settings: time day <=24
[2] = Solubility of compound in phosphate buffer at pH 7.4 incubated for 24 hrs under shaking condition by HPLC analysis; type: physicochemical
[3] = Toxicity in NPG mouse xenografted with human Raji cells assessed as body weight loss at 4 mg/kg, ig measured on the 1 day; type: organism-based; settings: in vivo, po, 24 h
[4] = Toxicity in nude BALB/c mouse xenografted with human HCT-116 cells assessed as reduction in body weight at 8 mg/kg, po dosed once the every 2 day for upto 24 days; type: organism-based; settings: in vivo, time <=24 day
LoVo = experiment: Cytotoxicity against human LoVo assessed as reduction in cell viability measured after 72 hrs by MTT assay; type: functional, cell-based
HCT-116 [5] = experiment: Antitumor activity against human HCT-116 cells xenografted in nude BALB/c mouse assessed as tumor growth inhibition at 0.5 mg/kg, ip dosed once the other day for 24 days; type: functional; settings: HCT-116, ip, 576 h, time 24 day, read-out: TGI
Raji [6] = experiment: Antitumor activity against NPG mouse xenografted with human Raji cell assessed as decrease in tumor volume at 2 mg/kg, ip measured on the 1 day; type: functional
[7] = Toxicity in Kunming mouse assessed as mortality at 250 mg/kg, po measured once every 30 mins upto 10 days; type: organism-based; settings: in vivo, 0.5 h
[8] = Toxicity in NPG mouse xenografted with human Raji cells assessed as body weight loss at 2 mg/kg, ip measured after 5 day; type: organism-based; settings: in vivo, 120 h
[9] = Toxicity in Kunming mouse assessed as mortality at 300 mg/kg ip measured once every 30 mins upto 10 days; type: organism-based; settings: in vivo, 0.5 h
Raji [10] = experiment: Antitumor activity against NPG mouse xenografted with human Raji cell assessed as decrease in tumor volume at 4 mg/kg, ig measured on the 1 day; type: functional
Raji [11] = experiment: Antitumor activity against NPG mouse xenografted with human Raji cell assessed as decrease in tumor volume at 4 mg/kg, ig measured after 5 day; type: functional
HCT-116 [12] = experiment: Induction of apoptosis in human HCT-116 cells assessed as late apoptotic cells level at 0.001 uM incubated for 24 hrs by Annexin V-FITC/PI staining based flow cytometry (reference value: 0.07%); type: functional
[13] = target: T1, DNA topoisomerase 1 (Homo sapiens) (UniProt P11387); experiment: Inhibition of human recombinant topoisomerase I using DNA pBR322 as substrate assessed as relaxed DNA at 1 uM incubated for 30 mins by gel electrophoresis analysis relative to control
T1 sequence (whole entry): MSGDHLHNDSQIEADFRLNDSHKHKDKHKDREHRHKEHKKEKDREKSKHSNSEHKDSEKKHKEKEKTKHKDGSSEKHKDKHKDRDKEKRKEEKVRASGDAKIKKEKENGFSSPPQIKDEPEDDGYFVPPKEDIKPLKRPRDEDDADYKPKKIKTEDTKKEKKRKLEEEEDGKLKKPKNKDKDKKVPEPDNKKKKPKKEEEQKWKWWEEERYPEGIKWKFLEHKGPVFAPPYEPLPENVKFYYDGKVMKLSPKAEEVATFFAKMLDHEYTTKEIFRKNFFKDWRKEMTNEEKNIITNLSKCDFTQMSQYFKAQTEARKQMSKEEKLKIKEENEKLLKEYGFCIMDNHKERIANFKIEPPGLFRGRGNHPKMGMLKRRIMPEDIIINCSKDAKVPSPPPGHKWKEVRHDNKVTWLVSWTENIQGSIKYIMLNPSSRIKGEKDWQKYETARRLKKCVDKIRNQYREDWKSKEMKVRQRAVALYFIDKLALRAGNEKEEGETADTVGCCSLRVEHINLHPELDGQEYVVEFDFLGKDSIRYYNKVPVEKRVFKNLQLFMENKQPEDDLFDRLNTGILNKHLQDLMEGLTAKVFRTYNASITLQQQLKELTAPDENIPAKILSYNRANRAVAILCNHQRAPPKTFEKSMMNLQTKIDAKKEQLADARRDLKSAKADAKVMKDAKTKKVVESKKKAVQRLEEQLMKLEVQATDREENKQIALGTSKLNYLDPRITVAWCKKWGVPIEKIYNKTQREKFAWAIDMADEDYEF

HCT-116 [14] = experiment: Antitumor activity against human HCT-116 cells xenografted in nude BALB/c mouse assessed as tumor growth inhibition at 0.5 mg/kg, po dosed once the other day for 12 times upto 24 days; type: functional; settings: HCT-116, po, 576 h, time day <=24, read-out: TGI
Raji [15] = experiment: Antitumor activity against NPG mouse xenografted with human Raji cell assessed as decrease in tumor volume at 4 mg/kg, ip measured on the 1 day; type: functional
[16] = MRT (0 to infinity) in nude BALB/c mouse serum at 8.0 mg/kg incubated up to 9 hrs, iv administered […] by LC-MS/MS analysis; type: ADME, organism-based
HCT-116 [17] = experiment: Induction of apoptosis in human HCT-116 cells assessed as late apoptotic cells level at 1 uM incubated for 24 hrs by Annexin V-FITC/PI staining based flow cytometry (reference value: 0.07%); type: functional
HCT-116 [18] = experiment: Induction of apoptosis in human HCT-116 cells assessed as early apoptotic cells level at 0.001 uM incubated for 24 hrs by Annexin V-FITC/PI staining based flow cytometry (reference value: 0.17%); type: functional
[19] = Tmax in nude BALB/c mouse serum at 8.0 mg/kg incubated up to 9 hrs, iv administered […] by LC-MS/MS analysis; type: ADME, organism-based
[20] = Toxicity in Kunming mouse assessed as mortality at 150 mg/kg ip measured once every 30 mins upto 10 days; type: organism-based; settings: in vivo, 0.5 h
Raji [21] = experiment: Antitumor activity against NPG mouse xenografted with human Raji cell assessed as decrease in tumor volume at 8 mg/kg, ig measured after 5 day; type: functional
[22] = Half life in nude BALB/c mouse serum at 8.0 mg/kg incubated up to 9 hrs, po administered via gavage by LC-MS/MS analysis; type: ADME, organism-based
[23] = AUC (0 to infinity) in nude BALB/c mouse serum at 8.0 mg/kg incubated up to 9 hrs, iv administered […] by LC-MS/MS analysis; type: ADME, organism-based; parameters: route intravenous, dose 8 mg/kg, time <=9; settings: in vivo
Raji [24] = experiment: Antitumor activity against NPG mouse xenografted with human Raji cell assessed as tumor growth inhibition at 4 mg/kg, ig measured after 5 day; type: functional; settings: po, 120 h, read-out: TGI
[25] = Cmax in nude BALB/c mouse serum at 8.0 mg/kg incubated up to 9 hrs, po administered via gavage by LC-MS/MS analysis; type: ADME, organism-based; parameters: route oral, dose 8 mg/kg, time <=9
[26] = Toxicity in NPG mouse xenografted with human Raji cells assessed as body weight loss at 8 mg/kg, ig measured after 5 day; type: organism-based; settings: in vivo, po, 120 h
[27] = Tmax in nude BALB/c mouse serum at 8.0 mg/kg incubated up to 9 hrs, po administered via gavage by LC-MS/MS analysis; type: ADME, organism-based
HCT-116 [28] = experiment: Antitumor activity against human HCT-116 cells xenografted in nude BALB/c mouse assessed as tumor growth inhibition at 0.2 mg/kg, ip dosed once the other day for 24 days; type: functional; settings: HCT-116, ip, 576 h, time 24 day, read-out: TGI

CCc1c2c(nc3ccc(OCC(=O)N4CCCCC4)cc13)-c1cc3c(c(=O)n1C2)COC(=O)[C@]3(O)CC
Activity (HCT-116 [1]): 96.2% | solubility thermodynamic at 24 h [2]: 19.9 µg/mL (≈ 38.4 µM) | Activity [3]: 25.4 g | Activity [4]: Toxic | IC50 (LoVo): 81 nM | inhibition in vivo at 0.5 mg/kg (HCT-116 [5]): 92% | Activity (Raji [6]): 983 mm3 | Activity [7]: Non-Toxic | Activity [8]: 20.6 g | Activity [9]: Non-Toxic | Activity (Raji [10]): 900 mm3 | Activity (Raji [11]): 1203 mm3 | Activity (HCT-116 [12]): 5.48% | inhibition [13]: 38.1% | inhibition in vivo at 0.5 mg/kg (HCT-116 [14]): 48.1% | Activity (Raji [15]): 1186 mm3 | MRT inf [16]: 13.8 min | Activity (HCT-116 [17]): 6.4% | Activity (HCT-116 [18]): 4.92% | Tmax [19]: 10.2 min | Activity [20]: Non-Toxic | Activity (Raji [21]): 1374 mm3 | half-life [22]: 87.6 min | AUC [23]: 748.96 h/ng/mL | inhibition in vivo at 4 mg/kg (Raji [24]): 33.8% | Cmax [25]: 332 ng/mL | Activity [26]: 22.5 g | Tmax [27]: 19.8 min | inhibition in vivo at 0.2 mg/kg (HCT-116 [28]): 71.8%
